Results: patent publication US5290347A, “Salt-forming type dye, and its concentrated solution composition and ink composition” (Orient Chemical Industries, Ltd., priority 1991, dated 1994)

What was measured:
[1] = Solubility of the comparative dyes (Table 4), evaluation A-D; format: physicochemical; conditions: for Solubility, Glycol ether: solvent: glycol ether; for Solubility, Lower alcohol: solvent: lower alcohol; for Solubility, Water: solvent: water
[2] = Solubility of the salt-forming type dyes (Tables 1-3); format: physicochemical; conditions: for Solubility, Ethanol: solvent: ethanol; for Solubility, Glycol ether: solvent: glycol ether

SMILES | Solubility, Water:Solvent = 2:8 [1] | Solubility, Glycol ether [1] | Solubility, Lower alcohol [1] | Solubility, Water:Solvent = 2:8 [2] | Solubility, Ethanol [2] | Solubility, Glycol ether [2] | Solubility, Water [1]
Nc1cc2c(O)c(N=Nc3ccc(N=Nc4cccc(P(=O)(O)O)c4)c4ccc(S(=O)(=O)O)cc34)c(S(=O)(=O)O)cc2cc1S(=O)(=O)O [Black No. 5] |  |  |  | 10 g/100 ml | 10 g/100 ml | 30 g/100 ml | 
COc1cc(N=Nc2cccc(P(=O)(O)O)c2)c(C)cc1N=Nc1c(S(=O)(=O)O)cc2ccc(N)cc2c1O [Black No. 1] |  |  |  | 15 g/100 ml | 3 g/100 ml | 10 g/100 ml | 
CC(=O)Nc1cc(S(=O)(=O)O)cc2cc(S(=O)(=O)O)c(N=Nc3cccc(P(=O)(O)O)c3)c(O)c12 [Red No. 2] |  |  |  | 30 g/100 ml | 8 g/100 ml | 25 g/100 ml | 
COc1cc(N=Nc2cccc(P(=O)(O)O)c2)c(C)cc1N=Nc1c(S(=O)(=O)O)cc2ccc(N)cc2c1O [Black No. 2] |  |  |  | 10 g/100 ml | 5 g/100 ml | 15 g/100 ml | 
Nc1c(N=Nc2cccc(P(=O)(O)O)c2)c(S(=O)(=O)O)cc2cc(S(=O)(=O)O)c(N=Nc3cccc(P(=O)(O)O)c3)c(O)c12 [Blue No. 1] |  |  |  | 30 g/100 ml | 3 g/100 ml | 25 g/100 ml | 
Nc1ccc2cc(S(=O)(=O)O)cc(O)c2c1N=Nc1cc(S(=O)(=O)O)cc2cc(S(=O)(=O)O)c(N=Nc3cccc(P(=O)(O)O)c3)c(O)c12 [Black No. 7] |  |  |  | 30 g/100 ml | 3 g/100 ml | 20 g/100 ml | 
Nc1cc2c(O)c(N=Nc3ccc(N=Nc4cccc(P(=O)(O)O)c4)c4ccc(S(=O)(=O)O)cc34)c(S(=O)(=O)O)cc2cc1S(=O)(=O)O [Black No. 4] |  |  |  | 30 g/100 ml | 5 g/100 ml | 30 g/100 ml | 
COc1cc(N=Nc2cccc(P(=O)(O)O)c2)c(C)cc1N=Nc1c(S(=O)(=O)O)cc2cc(S(=O)(=O)O)cc(N)c2c1O [Blue No. 3] |  |  |  | 25 g/100 ml | 10 g/100 ml | 30 g/100 ml | 
Nc1cc(S(=O)(=O)O)cc2cc(S(=O)(=O)O)c(N=Nc3ccc(N=Nc4cccc(P(=O)(O)O)c4)c4ccc(O)cc34)c(O)c12 [Blue No. 2] |  |  |  | 30 g/100 ml | 5 g/100 ml | 25 g/100 ml | 
Nc1ccc2cc(S(=O)(=O)O)c(N=Nc3ccc(N=Nc4cccc(P(=O)(O)O)c4)c4ccc(S(=O)(=O)O)cc34)c(O)c2c1 [Black No. 8] |  |  |  | 20 g/100 ml | 8 g/100 ml | 30 g/100 ml | 
Nc1ccc2cc(S(=O)(=O)O)c(N=Nc3ccc(N=Nc4cccc(P(=O)(O)O)c4)c4ccc(S(=O)(=O)O)cc34)c(O)c2c1 [Black No. 3] |  |  |  | 20 g/100 ml | 5 g/100 ml | 30 g/100 ml | 
CC1(C)Nc2cccc3c(N=Nc4cc(S(=O)(=O)O)cc5cc(S(=O)(=O)O)c(N=Nc6cccc(P(=O)(O)O)c6)c(O)c45)ccc(c23)N1 [Black No. 6] |  |  |  | 10 g/100 ml | 10 g/100 ml | 15 g/100 ml | 
O=P(O)(O)c1cccc(N=Nc2ccc(N=Nc3c(O)ccc4cc(S(=O)(=O)O)cc(S(=O)(=O)O)c34)cc2)c1 [Red No. 1] |  |  |  | 30 g/100 ml | 10 g/100 ml | 20 g/100 ml | 

More lines, main results first:

Solubility, Water:Solvent = 2:8 [1] | Solubility, Glycol ether [1] | Solubility, Lower alcohol [1] | Solubility, Water:Solvent = 2:8 [2] | Solubility, Ethanol [2] | Solubility, Glycol ether [2] | SMILES | Solubility, Water [1]
C (dissolved in an amount of 5% or less) | D (dissolved in an amount of 1% or less) | D (dissolved in an amount of 1% or less) |  |  |  | CC(=O)Nc1cc(S(=O)(=O)O)cc2cc(S(=O)(=O)O)c(N=Nc3cccc(P(=O)(O)O)c3)c(O)c12 [compound 7] | A (dissolved in an amount of 10% or more)
C (dissolved in an amount of 5% or less) | B (dissolved in an amount of 5~10%) | C (dissolved in an amount of 5% or less) |  |  |  | Nc1cc2c(O)c(N=Nc3ccc(N=Nc4cccc(P(=O)(O)O)c4)c4ccc(S(=O)(=O)O)cc34)c(S(=O)(=O)O)cc2cc1S(=O)(=O)O [compound 6] | C (dissolved in an amount of 5% or less)
C (dissolved in an amount of 5% or less) | C (dissolved in an amount of 5% or less) | D (dissolved in an amount of 1% or less) |  |  |  | Cc1nn(-c2ccccc2)c(O)c1N=Nc1cccc(P(=O)(O)O)c1 [compound 1] | D (dissolved in an amount of 1% or less)
C (dissolved in an amount of 5% or less) | C (dissolved in an amount of 5% or less) | D (dissolved in an amount of 1% or less) |  |  |  | O=P(O)(O)c1cccc(N=Nc2ccc(N=Nc3c(O)ccc4cc(S(=O)(=O)O)cc(S(=O)(=O)O)c34)cc2)c1 [compound 4] | A (dissolved in an amount of 10% or more)
 |  |  | 30 g/100 ml | 3 g/100 ml | 30 g/100 ml | Nc1cc(N=Nc2cccc(P(=O)(O)O)c2)c2c(O)cc(S(=O)(=O)O)cc2c1N=Nc1cccc(P(=O)(O)O)c1 [Red No. 4] | 
D (dissolved in an amount of 1% or less) | B (dissolved in an amount of 5~10%) | C (dissolved in an amount of 5% or less) |  |  |  | Nc1cc(S(=O)(=O)O)cc2cc(S(=O)(=O)O)c(N=Nc3ccc(N=Nc4cccc(S(=O)(=O)O)c4)c4ccccc34)c(O)c12 [compound 8] | D (dissolved in an amount of 1% or less)
C (dissolved in an amount of 5% or less) | B (dissolved in an amount of 5~10%) | C (dissolved in an amount of 5% or less) |  |  |  | Cc1nn(-c2ccccc2)c(O)c1N=Nc1cccc(S(=O)(=O)O)c1 [compound 2] | D (dissolved in an amount of 1% or less)
C (dissolved in an amount of 5% or less) | D (dissolved in an amount of 1% or less) | D (dissolved in an amount of 1% or less) |  |  |  | Nc1cc(S(=O)(=O)O)cc2cc(S(=O)(=O)O)c(N=Nc3ccc(N=Nc4cccc(S(=O)(=O)O)c4)c4ccc(O)cc34)c(O)c12 [compound 3] | A (dissolved in an amount of 10% or more)
 |  |  | 30 g/100 ml | 5 g/100 ml | 25 g/100 ml | O=P(O)(O)c1cccc(N=Nc2c(S(=O)(=O)O)cc3cc(Nc4ccc5c(O)c(N=Nc6cccc(P(=O)(O)O)c6)c(S(=O)(=O)O)cc5c4)ccc3c2O)c1 [Red No. 3] | 
D (dissolved in an amount of 1% or less) | C (dissolved in an amount of 5% or less) | D (dissolved in an amount of 1% or less) |  |  |  | Nc1cc2c(O)c(N=Nc3ccc(N=Nc4cccc(P(=O)(O)O)c4)c4ccc(S(=O)(=O)O)cc34)c(S(=O)(=O)O)cc2cc1S(=O)(=O)O [compound 5] | A (dissolved in an amount of 10% or more)
